These results are taken from EP1282680B1, “COMPOSITIONS COMPRISING CYCLODEXTRIN” (THE PROCTER & GAMBLE COMPANY, priority 2000, dated 2001).

Where a name gives a salt, the structure may show the parent alone. A value given as a limit tells only on which side of the number the result lay.

The first data set is described as follows: Elevation of surfactant surface tension in the presence of cyclodextrin. It counts as physicochemical. Particulars: in the presence of a typical cyclodextrin like hydroxypropyl beta-cyclodextrin and methylated beta-cyclodextrin (1%). The source says:
Cyclodextrin-incompatible surfactants generally can be readily identified by the noticeable effect of cyclodextrin on the surface tension provided by the cyclodextrin-incompatible surfactant This is achieved by determining the surface tension (in dyne/cm) of aqueous solutions of the cyclodextrin-incompatible surfactant in the presence and in the absence of 1% of a specific cyclodextrin in the solutions. The aqueous solutions contain cyclodextrin-incompatible surfactant at concentrations of approximately 0.5%, 0.1%, 0.01%, and 0.005%. The cyclodextrin can affect the surface activity of a surfactant by elevating the surface tension of the surfactant solution. […]
Suitable cyclodextrin-compatible surfactants can also be readily identified by the absence of effect of cyclodextrin on the surface tension provided by the surfactant. […]
Consider `CCCCCCCCCCCCOS(=O)(=O)[O-].[Na+]` [Sodium dodecyl sulfate], for which the “elevation in surface tension” value was more than 10%. Same read-out and setting: then dodecanolpoly(6)ethoxylate, with more than 10%.

Assay in another data set: not given
To be noted: cited from earlier work.
Take `[H]/N=C(\N/C(=N/[H])NCCCCCCNC(=N)NC(=N)Nc1ccc(Cl)cc1)Nc1ccc(Cl)cc1` [digluconate salt, 1,1'-hexamethylene bis(5-(p-chlorophenyl)biguanide)]: the solubility in water is recorded as 70%. As for `[H]/N=C(\N/C(=N/[H])NCCCCCCNC(=N)NC(=N)Nc1ccc(Cl)cc1)Nc1ccc(Cl)cc1` [diacetate salt, 1,1'-hexamethylene bis(5-(p-chlorophenyl)biguanide)], the solubility in water was 1.8%.

The nature of the next data set: Complexation constant of phenolphthalein with beta-cyclodextrin, absorbance at 550 nm. The data set is classed as binding. To be noted: room temperature, 4.0 x 10^-3 mol/l Na2CO3 solution, pH 10.5. The source says: A spectral displacement method with phenolphthalein is used to determine the complexation constant between cyclodextrin and a given material, especially for surfactants. This method of determining complexation constants with cyclodextrins is described in detail in the following references: Sasaki, KJ., Christian, S.D., and Tucker, E.E., "Study of the Stability of 1:1 Complexes Between Aliphatic Alcohols and b-Cyclodextrins in Aqueous Solution," Fluid Phase Equilibria, Vol. 49, (Amsterdam, Elsevier Science Publishers, 1989), pp. 281-89. Further information regarding spectral displacement methods can be found in other references, e.g. in Wilson, L.D., Siddall, S.R, and Verrall RE., "A Spectral Displacement Study of the Binding Constants of Cyclodextrin-Hydrocarbon and - Fluorocarbon Surfactant Inclusion Complexes," Canadian Journal of Chemistry, Vol. 75, (NRC Canada 1997), pp. 927-933. […]
The complexation constant of a given material with cyclodextrin is obtained by an absorbance measurement in the visible region at 550 nm that is performed with a spectrophotometer at room temperature. […] Complexation constants of cyclodextrin-compatible and/or cyclodextrin-incompatible materials arc determined with using the free, uncomplexed phenolphthalein concentration obtained by absorbance at 550 nm.
As to `O=C1OC(c2ccc(O)cc2)(c2ccc(O)cc2)c2ccccc21` [phenolphthalein], the “complexation constant of phenolphthalein with beta-cyclodextrin” value is recorded as “about 21,000 M^-1”.

The next data set can be described thus: Complexation constant with cyclodextrin, spectral displacement method with phenolphthalein. The data set is classed as binding. Particulars: unit not given, the text gives complexation constants in M^-1. The source says:
A spectral displacement method with phenolphthalein is used to determine the complexation constant between cyclodextrin and a given material, especially for surfactants. This method of determining complexation constants with cyclodextrins is described in detail in the following references: Sasaki, KJ., Christian, S.D., and Tucker, E.E., "Study of the Stability of 1:1 Complexes Between Aliphatic Alcohols and b-Cyclodextrins in Aqueous Solution," Fluid Phase Equilibria, Vol. 49, (Amsterdam, Elsevier Science Publishers, 1989), pp. 281-89. Further information regarding spectral displacement methods can be found in other references, e.g. in Wilson, L.D., Siddall, S.R, and Verrall RE., "A Spectral Displacement Study of the Binding Constants of Cyclodextrin-Hydrocarbon and - Fluorocarbon Surfactant Inclusion Complexes," Canadian Journal of Chemistry, Vol. 75, (NRC Canada 1997), pp. 927-933.
The test method is based on the fact that phenolphthalein will complex with cyclodextrin and in complexed form is colorless. However, it has a strong color at pH 10.5 when in non-complexed form. Other, cyclodextrin-incompatible, materials themselves complex with the cyclodextrin and prevent the phenolphthalein from doing so. Thus the higher the complexation constant of the other component with cyclodextrin, the more non-complexed phenolphthalein will be present and the stronger the observed color.
The complexation constant of a given material with cyclodextrin is obtained by an absorbance measurement in the visible region at 550 nm that is performed with a spectrophotometer at room temperature. All solutions are prepared in 4.0 x 10^-3 mol/l Na2CO3 solution to maintain a constant pH. The concentration of phenolphthalein is kept constant at 3.0 x 10^-5 mol/l. Cyclodextrin concentration and surfactant concentration are varied. Here, optimum parameter values for absorption coefficient of phonolphthalein at 550 nm is 33,000 M^-1 cm^-1, and the complexation constants of phenolphthalein with cyclodextrin and cyclodextrin derivatives are preliminary obtained. […] Complexation constants of cyclodextrin-compatible and/or cyclodextrin-incompatible materials arc determined with using the free, uncomplexed phenolphthalein concentration obtained by absorbance at 550 nm.
On to `CCCCCCCCCCCC[N+](C)(C)C.[Br-]` [Dodecyltrimethylammonium bromide], for which the “Complexation Constant (K)” value is listed as “about 18100”. On the same count and under the same terms, to `CCCCCCCCCCCC(=O)[O-].[Na+]` [Sodium laurate] belongs “about 16000”; to Lauramine oxide, “about 7500”.

Turning to Lawreth-6, the “Complexation Constant (K)” value is given as “about 10000”. With `CCCCCCCCCCCCOS(=O)(=O)[O-].[Na+]` [Sodium dodecyl sulfate], the “Complexation Constant (K)” value is given as “about 22000”.

The nature of another data set: CD interaction of perfume components. Particulars: weak = cyclodextrin-compatible; significant or strong = cyclodextrin-incompatible. The data set is classed as physicochemical. The source says:
The following table illustrates the molecular weight property of some of the cyclodextrin-incompatible enduring (hydrophobic) perfume materials (i.e. having significant or strong CD interaction) versus cyclodextrin-compatible perfume materials (i.e. having weak CD interaction).
Regarding `CC(C)(O)CCCC1=CCC(C=O)CC1` (centres unmarked) [Lyral], the CD interaction entry is reported as “weak”.

For `CCCCCC1C(=O)CCC1CC(=O)OC` (centres unmarked) [Methyl Dihydro Jasmonate], the CD interaction result is reported as “weak”.

As for `CC(=O)C1(C)CC2=C(CCCC2(C)C)CC1C` (centres unmarked) [Iso-E Super], the CD interaction result is listed as “weak”. As for `CCCCCCOC(=O)c1ccccc1O` [Hexyl Salicylate], the CD interaction result is “weak”. `CCCCCCC(C=O)=Cc1ccccc1` [Hexyl cinnamic Aldehyde]: the CD interaction entry is listed as “weak”. In the case of `CC(=O)/C=C/C1C(C)=CCCC1(C)C` (centres unmarked) [a-ionone], the CD interaction result was “strong”. Take `CC(C=O)Cc1ccc(C(C)C)cc1` (centres unmarked) [Cymal]: the CD interaction entry is on record as “strong”. Consider `CC1COCc2cc3c(cc21)C(C)(C)C(C)C3(C)C` (centres unmarked) [Galaxolide], for which the CD interaction result is recorded as “weak”. For `CCOC(=O)c1ccccc1C(=O)OCC` [Diethyl Phthalate], the CD interaction entry was “weak”. For the compound `CC(=O)C(C)=C(C)C(C)C(C)(C)C` (centres unmarked) [Koavone], the CD interaction entry was “strong”. The same measure, in the same setting: then `CCC(C)(O)CCCC(C)C` (centres unmarked) [Tetrahydrolinalol], with “significant”; and `O=C(Cc1ccccc1)OCCc1ccccc1` [Phenyl-Ethyl-Phenyl Acetate], with “weak”. Take a-Me Ionone: the CD interaction result is “strong”. On the same count and under the same terms, then `CC(=O)OC(C)(C)C1CC=C(C)CC1` (centres unmarked) [Terpinyl Acetate], with “significant”. Still for that read-out and setting: to `CCCCCCCCCCCCCC(=O)OC(C)C` [Iso-propyl Myristate] belongs “weak”; to `CC(C=O)Cc1ccc(C(C)(C)C)cc1` (centres unmarked) [Lilial, p-t-bucinal], “strong”. As to `CC(=O)OC1CC2CC1C1CC=CC21` (centres unmarked) [Flor Acetate], the CD interaction entry is “strong”. On to `CCC(=O)OC1CC2CC1C1CC=CC21` (centres unmarked) [Frutene], for which the CD interaction entry was “strong”.

Regarding `CC(=O)OC1CCC(C(C)(C)C)CC1` (centres unmarked) [Vertenex, para-tert-butylcyclohexyl acetate], the CD interaction entry is “strong”.
